Measurements taken from the NIST ThermoML archive (doi:10.1016/j.jct.2010.10.018).

Experiment: xn = mol fraction of the nth substance listed
Settings: 101 kPa, Liquid, Vibrating tube method

CC(C)(C)O [2-methylpropan-2-ol] + O
Settings	mass density [kg/m3]
274.15 K, x1 = 0.00089	999.21
274.15 K, x1 = 0.00146	998.81
274.15 K, x1 = 0.00269	997.91
274.15 K, x1 = 0.00403	997.02
274.15 K, x1 = 0.00513	996.3
274.15 K, x1 = 0.00761	994.82
274.15 K, x1 = 0.01051	993.19
274.15 K, x1 = 0.01405	991.42
274.15 K, x1 = 0.01793	989.78
274.15 K, x1 = 0.02241	988.11
274.15 K, x1 = 0.03005	985.71
274.15 K, x1 = 0.04242	982.79
274.15 K, x1 = 0.08929	966.2
275.15 K, x1 = 0.00089	999.25
275.15 K, x1 = 0.00146	998.85
275.15 K, x1 = 0.00269	997.96
275.15 K, x1 = 0.00403	997.06
275.15 K, x1 = 0.00513	996.34
275.15 K, x1 = 0.00761	994.84
275.15 K, x1 = 0.01051	993.21
275.15 K, x1 = 0.01405	991.44
275.15 K, x1 = 0.01793	989.78
275.15 K, x1 = 0.02241	988.08
275.15 K, x1 = 0.03005	985.63
275.15 K, x1 = 0.04242	982.59
275.15 K, x1 = 0.08929	965.24
276.15 K, x1 = 0.00089	999.28
276.15 K, x1 = 0.00146	998.89
276.15 K, x1 = 0.00269	997.99
276.15 K, x1 = 0.00403	997.09
276.15 K, x1 = 0.00513	996.36
276.15 K, x1 = 0.00761	994.86
276.15 K, x1 = 0.01051	993.23
276.15 K, x1 = 0.01405	991.43
276.15 K, x1 = 0.01793	989.76
276.15 K, x1 = 0.02241	988.02
276.15 K, x1 = 0.03005	985.53
276.15 K, x1 = 0.04242	982.37
276.15 K, x1 = 0.08929	964.42
277.15 K, x1 = 0.00089	999.29
277.15 K, x1 = 0.00146	998.9
277.15 K, x1 = 0.00269	998.01
277.15 K, x1 = 0.00403	997.1
277.15 K, x1 = 0.00513	996.37
277.15 K, x1 = 0.00761	994.85
277.15 K, x1 = 0.01405	991.42
278.15 K, x1 = 0.00089	999.28
278.15 K, x1 = 0.00146	998.89
278.15 K, x1 = 0.00269	998.01
278.15 K, x1 = 0.00403	997.1
278.15 K, x1 = 0.00513	996.37
278.15 K, x1 = 0.00761	994.85
278.15 K, x1 = 0.01051	993.21
278.15 K, x1 = 0.01405	991.41
278.15 K, x1 = 0.01793	989.68
278.15 K, x1 = 0.02241	987.87
278.15 K, x1 = 0.0248	986.88
278.15 K, x1 = 0.03005	985.29
278.15 K, x1 = 0.03494	983.86
278.15 K, x1 = 0.04241	981.87
278.15 K, x1 = 0.04242	981.89
278.15 K, x1 = 0.05218	979.23
278.15 K, x1 = 0.05887	977
278.15 K, x1 = 0.06973	972.66
278.15 K, x1 = 0.08929	962.87
278.15 K, x1 = 0.1125	951.21
278.15 K, x1 = 0.1566	929.91
278.15 K, x1 = 0.208	910.57
278.15 K, x1 = 0.2408	899.29
278.15 K, x1 = 0.3023	882.17
278.15 K, x1 = 0.3451	872.16
278.15 K, x1 = 0.4045	860.22
278.15 K, x1 = 0.4225	857.05
278.15 K, x1 = 0.4653	849.9
278.15 K, x1 = 0.5344	839.61
278.15 K, x1 = 0.6029	831.08
278.15 K, x1 = 0.6909	821.72
278.15 K, x1 = 0.726	818.36
278.15 K, x1 = 0.7999	812.56
279.15 K, x1 = 0.00089	999.26
279.15 K, x1 = 0.00146	998.87
279.15 K, x1 = 0.00269	997.99
279.15 K, x1 = 0.00403	997.08
279.15 K, x1 = 0.00513	996.35
279.15 K, x1 = 0.00761	994.79
279.15 K, x1 = 0.01405	991.37
280.15 K, x1 = 0.00089	999.22
280.15 K, x1 = 0.00146	998.83
280.15 K, x1 = 0.00269	997.95
280.15 K, x1 = 0.00403	997.04
280.15 K, x1 = 0.00513	996.31
280.15 K, x1 = 0.00761	994.76
280.15 K, x1 = 0.01051	993.13
280.15 K, x1 = 0.01405	991.32
280.15 K, x1 = 0.01793	989.57
280.15 K, x1 = 0.02241	987.69
280.15 K, x1 = 0.03005	985
280.15 K, x1 = 0.04242	981.35
280.15 K, x1 = 0.08929	961.26
281.15 K, x1 = 0.00089	999.17
281.15 K, x1 = 0.00146	998.78
281.15 K, x1 = 0.00269	997.9
281.15 K, x1 = 0.00403	996.99
281.15 K, x1 = 0.00513	996.26
281.15 K, x1 = 0.00761	994.7
281.15 K, x1 = 0.01405	991.25
282.15 K, x1 = 0.00089	999.1
282.15 K, x1 = 0.00146	998.72
282.15 K, x1 = 0.00269	997.84
282.15 K, x1 = 0.00403	996.93
282.15 K, x1 = 0.00513	996.19
282.15 K, x1 = 0.00761	994.63
282.15 K, x1 = 0.01405	991.16
283.15 K, x1 = 0.00089	999.02
283.15 K, x1 = 0.00146	998.63
283.15 K, x1 = 0.00269	997.76
283.15 K, x1 = 0.00403	996.85
283.15 K, x1 = 0.00513	996.12
283.15 K, x1 = 0.00761	994.57
283.15 K, x1 = 0.01405	991.06
288.15 K, x1 = 0.00089	998.43
288.15 K, x1 = 0.00146	998.04
288.15 K, x1 = 0.00269	997.17
288.15 K, x1 = 0.00403	996.26
288.15 K, x1 = 0.00513	995.52
288.15 K, x1 = 0.00761	993.96
288.15 K, x1 = 0.01405	990.35
288.15 K, x1 = 0.0248	985.26
288.15 K, x1 = 0.03494	981.48
288.15 K, x1 = 0.04241	978.77
288.15 K, x1 = 0.05218	974.85
288.15 K, x1 = 0.05887	971.81
288.15 K, x1 = 0.06973	966.34
288.15 K, x1 = 0.1125	943.7
288.15 K, x1 = 0.1566	922.09
288.15 K, x1 = 0.208	902.66
288.15 K, x1 = 0.2408	891.25
288.15 K, x1 = 0.3023	874
288.15 K, x1 = 0.3451	863.89
288.15 K, x1 = 0.4045	851.78
288.15 K, x1 = 0.4225	848.63
288.15 K, x1 = 0.4653	841.48
288.15 K, x1 = 0.5344	830.98
288.15 K, x1 = 0.6029	822.27
288.15 K, x1 = 0.6909	812.77
288.15 K, x1 = 0.726	809.38
288.15 K, x1 = 0.7999	803.46
288.15 K, x1 = 0.8711	797.8
288.15 K, x1 = 0.9183	794.66
298.15 K, x1 = 0.00089	996.39
298.15 K, x1 = 0.00146	996
298.15 K, x1 = 0.00269	995.11
298.15 K, x1 = 0.00403	994.19
298.15 K, x1 = 0.00513	993.44
298.15 K, x1 = 0.00761	991.84
298.15 K, x1 = 0.01405	988.08
298.15 K, x1 = 0.0248	982.45
298.15 K, x1 = 0.03494	977.97
298.15 K, x1 = 0.04241	974.54
298.15 K, x1 = 0.05218	969.58
298.15 K, x1 = 0.05887	965.94
298.15 K, x1 = 0.06973	959.94
298.15 K, x1 = 0.1125	936.18
298.15 K, x1 = 0.1566	914.18
298.15 K, x1 = 0.208	894.55
298.15 K, x1 = 0.2408	883.06
298.15 K, x1 = 0.3023	865.6
298.15 K, x1 = 0.3451	855.48
298.15 K, x1 = 0.4045	843.11
298.15 K, x1 = 0.4225	839.94
298.15 K, x1 = 0.4653	832.83
298.15 K, x1 = 0.5344	822.05
